Measured values: patent publication US9724408B2, “Compositions and methods for activating stimulator of interferon gene-dependent signalling” (ADURO BIOTECH, INC., priority 2013, dated 2017)

What was measured:
[1] = tested on: hSTING (Q); assay: IFNβ-LUC reporter in HEK293T cells expressing hSTING (Q); format: cell-based, human; settings: 10 μM, digitonin permeabilization, 6 hrs, FIG. 14
From the text: To determine the responsiveness of the five known natural human STING variants (referred to as WT, REF, HAQ, AQ and Q) to the native and derivative molecules, a panel of human embryonic kidney (HEK) 293T cell lines that expressed the human STING alleles was generated. […] MSCV2.2 plasmids encoding hSTING(REF)-GFP, hSTING(WT)-GFP, hSTING(HAQ)-GFP, hSTING(Q)-GFP and mSTING(WT)-GFP were obtained from the Vance Laboratory at UC Berkeley. hSTING(AQ)-GFP was derived from hSTING(Q)-GFP using a QuickChange Site-Directed Mutagenesis kit (Stratagene). The sequence of the hSTING(REF) allele is also known as the Barber allele (Ishikawa, H., and Barber, G. N. (2008). Nature 455, 674-678), and has the NCBI Reference Sequence NP_938023.1. The amino acid difference between hSTING(REF) and the other WT, HAQ, AQ and Q human STING alleles are shown in FIG. 13, which is adapted from Yi et al., Plos One 8: e77846 (2013). Stable HEK 293T-derived cell lines expressing each of the individual human STING alleles were generated by FACS sorting of GFP positive cells using a Mo Flo cell sorter at the Cancer Research Laboratory Flow Cytometry Facility at UC Berkeley. 1×10^4 HEK293T STING cells were seeded in 96-well plates and transiently transfected (using Lipofectamine 2000) with 50 ng of a human IFN-β reporter plasmid (pLuc-IFN-β) expressing the human IFN-β promoter upstream of a luciferase reporter and 10 ng of TK-renilla for normalization. 24 hours later, cells were stimulated with native and synthetic CDN derivative molecules using digitonin permeabalization to ensure uniform uptake. Each STING cell line was stimulated with 10 μM of cyclic [G(3′,5′)pA(3′,5′)p] (cGAMP), cyclic [G(2′,5′)pA(3′,5′)p] (ML-cGAMP), Rp, Rp dithio cyclic [G(2′,5′)pA(3′,5′)p] […] (CDA), Rp, Rp dithio cyclic [A(3′,5′)pA(3′,5′)p] (RR-CDA), cyclic [A(2′,5′)pA(3′,5′)p] (ML-CDA), Rp, Rp dithio cyclic [A(2′,5′)pA(3′,5′)p] (ML RR-CDA), cyclic [G(3′,5′)pG(3′,5′)p] (CDG), Rp, Rp dithio cyclic [G(3′,5′)pG(3′,5′)p] (RR-CDG), cyclic [G(2′,5′)pG(3′,5′)p] (ML-CDG) or Rp, Rp dithio cyclic [G(2′,5′)pG(3′,5′)p] (ML RR-CDG) in 25 ul digitonin buffer (50 mM HEPES, 100 mM KCL, 3 mM MgCl2, 0.1 mM DTT, 85 mM Sucrose, 0.2% BSA, 1 mM ATP, 0.1 mM GTP, 10 ug/ml digitonin). After 20 min, the stimulation mixtures were removed and 200 ul of standard RPMI media was added. After stimulation for 6 hrs, cell lysates were prepared and reporter gene activity measured using the Dual Luciferase Assay System (Promega) on a Spectramax M3 luminometer.

[2] = target: T1, hSTING (REF) (Homo sapiens, UniProt Q86WV6); assay: IFNβ-LUC reporter in HEK293T cells expressing hSTING (REF); format: cell-based; settings: 10 μM, digitonin permeabilization, 6 hrs, FIG. 14
T1 construct: GFP; expressed in transfected cells; plasmid from the Vance Laboratory, UC Berkeley
Experimental: MSCV2.2 plasmids encoding hSTING(REF)-GFP, hSTING(WT)-GFP, hSTING(HAQ)-GFP, hSTING(Q)-GFP and mSTING(WT)-GFP were obtained from the Vance Laboratory at UC Berkeley. hSTING(AQ)-GFP was derived from hSTING(Q)-GFP using a QuickChange Site-Directed Mutagenesis kit (Stratagene). […] 1×10^4 HEK293T STING cells were seeded in 96-well plates and transiently transfected (using Lipofectamine 2000) with 50 ng of a human IFN-β reporter plasmid (pLuc-IFN-β) expressing the human IFN-β promoter upstream of a luciferase reporter and 10 ng of TK-renilla for normalization. 24 hours later, cells were stimulated with native and synthetic CDN derivative molecules using digitonin permeabalization to ensure uniform uptake. Each STING cell line was stimulated with 10 μM of cyclic [G(3′,5′)pA(3′,5′)p] (cGAMP), cyclic [G(2′,5′)pA(3′,5′)p] […] (RR-CDA), cyclic [A(2′,5′)pA(3′,5′)p] […] (RR-CDG), cyclic [G(2′,5′)pG(3′,5′)p] […] (ML RR-CDG) in 25 ul digitonin buffer (50 mM HEPES, 100 mM KCL, 3 mM MgCl2, 0.1 mM DTT, 85 mM Sucrose, 0.2% BSA, 1 mM ATP, 0.1 mM GTP, 10 ug/ml digitonin). After 20 min, the stimulation mixtures were removed and 200 ul of standard RPMI media was added. After stimulation for 6 hrs, cell lysates were prepared and reporter gene activity measured using the Dual Luciferase Assay System (Promega) on a Spectramax M3 luminometer.

[3] = tested on: snake venom phosphodiesterase (SVPD)
[4] = target: T2, Nuclease P1 (NP1) (Penicillium citrinum, UniProt P24289); assay: Resistance to Nuclease P1, read out in THP1-Blue ISG cells; settings: 2.5 mU NP1, 2 hr at 37° C., then 50 μM on THP1-Blue ISG cells, FIG. 12
T2 sequence (P24289 1-270): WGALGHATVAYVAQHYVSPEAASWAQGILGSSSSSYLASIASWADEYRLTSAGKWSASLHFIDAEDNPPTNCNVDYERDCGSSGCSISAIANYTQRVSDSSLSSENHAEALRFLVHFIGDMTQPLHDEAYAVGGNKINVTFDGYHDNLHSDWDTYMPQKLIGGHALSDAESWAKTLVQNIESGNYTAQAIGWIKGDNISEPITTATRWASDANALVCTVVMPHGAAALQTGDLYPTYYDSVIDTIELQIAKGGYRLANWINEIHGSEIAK

[5] = tested on: THP1-Blue™ ISG cells; assay: Type I interferon induction in THP1-Blue ISG reporter cells (QUANTI-Blue, A655); format: cell-based, human; settings: 50 μM, mock treated, 16 hr incubation, FIG. 12
Experimental: To determine the relative level of type I interferon induced in human cells by each of the native and derivative molecules as a signature of adjuvant potency, 4×10^5 THP1-Blue™ ISG cells (a human monocyte cell line transfected with an IRF-inducible secreted embryonic alkaline phosphatase reporter gene (Invivogen) which express alkaline phosphatase under the control of a promoter comprised of five IFN-stimulated response elements) were incubated with 100 μM of cyclic [G(3′,5′)pG(3′,5′)p] (CDG), cyclic [G(2′,5′)pG(3′,5′)p] (mixed linkage, or ML-CDG), or HBSS for 30 minutes at 37° C. with 5% CO2. After 30 minutes, cells were washed and plated in 96-well dish in RPMI media containing 10% FBS, and incubated at 37° C. with 5% CO2. Cell culture supernatants from each sample were collected after overnight incubation, and 20 μL of the cell culture supernatants was added to 180 μL QUANTI-Blue reagent (Invivogen) and incubated for 45 minutes to evaluate type I interferon protein levels. Readings at Absorbance 655 nm were taken every 3 minutes using a Versa Max kinetic spectrophotometer (Molecular Diagnostics).
[…]. After 30 minutes, cells were washed and plated in 96-well dish in RPMI media containing 10% FBS, and incubated at 37° C. with 5% CO2. Cell culture supernatants from each sample were collected after overnight incubation, and 20 μL of the cell culture supernatants was added to 180 μL QUANTI-Blue reagent (Invivogen) and incubated for 45 minutes. Readings at Absorbance 655 nm were taken at 15 minutes using a SpectraMax spectrophotometer (Molecular Diagnostics).
The induction of type I interferon in human cells was measured to evaluate the potency of untreated and phosphodiesterase-treated oxo, Rp monothio and Rp, Rp dithio derivatives. […]. After 30 minutes, cells were washed and plated in a 96-well dish in RPMI media containing 10% FBS, and incubated at 37° C. with 5% CO2. Cell culture supernatants from each sample were collected after 16 hr incubation, and 20 μL of the cell culture supernatants was added to 180 μL QUANTI-Blue reagent (Invivogen) and incubated for 25 minutes to evaluate type I interferon protein levels. Readings at Absorbance 655 nm were measured with a Versa Max spectrophotometer (Molecular Diagnostics).

T1 sequence (Q86WV6 whole entry): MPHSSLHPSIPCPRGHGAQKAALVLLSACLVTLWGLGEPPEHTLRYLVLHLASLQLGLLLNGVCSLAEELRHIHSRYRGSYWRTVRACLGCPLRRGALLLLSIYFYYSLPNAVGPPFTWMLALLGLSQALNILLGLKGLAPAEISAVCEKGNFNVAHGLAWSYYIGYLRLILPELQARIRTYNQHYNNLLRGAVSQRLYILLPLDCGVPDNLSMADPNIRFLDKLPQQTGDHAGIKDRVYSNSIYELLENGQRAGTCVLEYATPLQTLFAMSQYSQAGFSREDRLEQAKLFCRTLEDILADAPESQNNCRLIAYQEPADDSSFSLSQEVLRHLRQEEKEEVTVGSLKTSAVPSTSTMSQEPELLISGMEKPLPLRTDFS

Nc1nc2c(ncn2[C@@H]2O[C@@H]3COP(=O)(O)O[C@H]4[C@@H](O)[C@H](n5cnc6c(N)ncnc65)O[C@@H]4COP(=O)(O)O[C@H]3[C@H]2O)c(=O)[nH]1 [cGAMP, cyclic [G(3′,5′)pA(3′,5′)p], reference compound]
IFNβ reporter response of hSTING (Q) [1]: responded poorly

Nc1ncnc2c1ncn2[C@@H]1O[C@@H]2COP(=O)(O)O[C@H]3[C@@H](O)[C@H](n4cnc5c(N)ncnc54)O[C@@H]3COP(=O)(O)O[C@H]2[C@H]1O [CDA, cyclic[A(3′,5′)pA(3′,5′)p], reference compound]
IFNβ reporter response of hSTING (REF) [2]: responded poorly | IFNβ reporter response of hSTING (Q) [1]: responded poorly | type I interferon inducing activity after SVPD treatment [3]: lost activity | type I interferon inducing activity after NP1 treatment [4]: lost activity

Nc1ncnc2c1ncn2C1OC2COP(=O)(O)OC3C(O)C(COP(=O)(O)OC2C1O)OC3n1cnc2c(N)ncnc21 (stereo not drawn) [ML-CDA, cyclic-[A(2′,5′)pA(3′,5′)p]]
type I interferon inducing activity after SVPD treatment [3]: lost activity | type I interferon inducing activity after NP1 treatment [4]: lost activity

Nc1ncnc2c1ncn2C1OC2COP(=O)(O)OC3C(O)C(COP(=O)(S)OC2C1O)OC3n1cnc2c(N)ncnc21 (stereo not drawn) [ML R-CDA, monothio-cyclic-[A(2′,5′)pA(3′,5′)Rp]]
type I interferon inducing activity after SVPD treatment [3]: susceptible to SVPD treatment | type I interferon inducing activity after NP1 treatment [4]: retained activity after NP1 digestion

Nc1ncnc2c1ncn2[C@@H]1O[C@@H]2CO[P@@](O)(=S)O[C@H]3[C@@H](O)[C@H](n4cnc5c(N)ncnc54)O[C@@H]3CO[P@@](O)(=S)O[C@H]2[C@H]1O [RR-CDA, Rp, Rp dithio cyclic [A(3′,5′)pA(3′,5′)p], reference compound]
induction of type I interferon, untreated compounds [5]: more potent inducers of type I interferon than the oxo | type I interferon inducing activity after SVPD treatment [3]: retain their potency | type I interferon inducing activity after NP1 treatment [4]: retain their potency

Nc1nc2c(ncn2[C@@H]2O[C@@H]3COP(=O)(S)O[C@H]4[C@@H](O)[C@H](n5cnc6c(N)ncnc65)O[C@@H]4CO[P@@](=O)(S)O[C@@H]2[C@@H]3O)c(=O)[nH]1 (stereo partly drawn) [ML RR-cGAMP, dithio-[RP,RP]-cyclic-[G(2′,5′)pA(3′,5′)p]]
IFNβ reporter response of hSTING (Q) [1]: responsive to stimulation

cyclic [CDG, cyclic [G(3′,5′)pG(3′,5′)p], reference compound]
IFNβ reporter response of hSTING (REF) [2]: responded poorly | IFNβ reporter response of hSTING (Q) [1]: responded poorly
